The supplement of paper PMC10307832

Key:
Assay in all cases: relative viability (nuclei count vs DMSO), 5 days (fraction); higher = more cells survive
[1] = compound: CC1CC(=O)N(C2=CN=C(N=C2N1C3CCCC3)NC4=C(C=C(C=C4)C(=O)NC5CCN(CC5)C)OC)C [NPK76-II-72-1] + CS(=O)(=O)CCNCc1ccc(-c2ccc3ncnc(Nc4ccc(OCc5cccc(F)c5)c(Cl)c4)c3c2)o1 [Lapatinib] (partner 2 µM)
How it was run: (§1)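 Relative viability is defined as nuclei in treated wells over nuclei in vehicle wells. Duplicate plates were run and medians reported. Lung cancer cell lines in 1536-well plates were dosed by pin tool one day after seeding, with one drug or with a fixed anchor-drug dose plus five library-drug doses (not always all listed) in √10 steps, and nuclei were counted after 5 days.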

[2] = compound: CC1CC(=O)N(C2=CN=C(N=C2N1C3CCCC3)NC4=C(C=C(C=C4)C(=O)NC5CCN(CC5)C)OC)C [NPK76-II-72-1] + CS(=O)(=O)N1CCN(Cc2cc3nc(-c4cccc5[nH]ncc45)nc(N4CCOCC4)c3s2)CC1 [Pictilisib] (partner 1 µM)
How it was run: as §1

[3] = compound: CC[C@@H]1C(=O)N(C)c2cnc(Nc3ccc(C(=O)NC4CCN(C)CC4)cc3OC)nc2N1C1CCCC1 [BI-2536] + CS(=O)(=O)CCNCc1ccc(-c2ccc3ncnc(Nc4ccc(OCc5cccc(F)c5)c(Cl)c4)c3c2)o1 [Lapatinib] (partner 2 µM)
How it was run: as §1

[4] = compound: CC[C@@H]1C(=O)N(C)c2cnc(Nc3ccc(C(=O)NC4CCN(C)CC4)cc3OC)nc2N1C1CCCC1 [BI-2536] + Cc1nc(NC(=O)N2CCC[C@H]2C(N)=O)sc1-c1ccnc(C(C)(C)C(F)(F)F)c1 [Alpelisib] (partner 2 µM)
How it was run: as §1

Cell Line	relative viability ([1]; first compound 0.01 µM)	relative viability ([1]; first compound 0.03162 µM)	relative viability ([1]; first compound 0.1 µM)	relative viability ([1]; first compound 0.3162 µM)	relative viability ([1]; first compound 1 µM)	relative viability ([2]; first compound 0.01 µM)	relative viability ([2]; first compound 0.03162 µM)	relative viability ([2]; first compound 0.1 µM)	relative viability ([2]; first compound 0.3162 µM)	relative viability ([2]; first compound 1 µM)	relative viability ([3]; first compound 0.01 µM)	relative viability ([3]; first compound 0.03162 µM)	relative viability ([3]; first compound 0.1 µM)	relative viability ([3]; first compound 0.3162 µM)	relative viability ([3]; first compound 1 µM)	relative viability ([4]; first compound 0.01 µM)	relative viability ([4]; first compound 0.03162 µM)	relative viability ([4]; first compound 0.1 µM)	relative viability ([4]; first compound 0.3162 µM)	relative viability ([4]; first compound 1 µM)
HCC-44	0.983	0.991	0.935	0.937	1	0.542	0.911	0.624	0.587	0.685	1.07	0.988	0.287	0.0973	0.0863	0.775	0.705	0.423	0.0667	0.0737
HCC-827	0.194	0.211	0.173	0.171	0.224	0.954	1.03	0.98	0.929	1.08	0.209	0.117	0.176	0.178	0.157	0.934	1.03	0.867	0.282	0.243
NCI-H2347	0.95	1.06	0.857	0.717	1.08	0.811	0.817	0.727	0.773	0.631	0.786	0.986	0.769	0.413	0.621	1.03	0.923	0.89	0.448	0.497
PC-14	0.321	0.269	0.28	0.301	0.338	0.6	0.692	0.619	0.6	0.805	0.323	0.408	0.342	0.0746	0.0774	0.951	0.891	0.877	0.0726	0.0642
NCI-H1651	0.835	0.928	0.905	0.807	0.837	0.432	0.548	0.703	0.557	0.592	0.754	0.8	0.118	0.0889	0.0915	0.93	0.828	0.558	0.0805	0.0804
HARA	0.762	0.806	0.578	0.722	0.713	0.371	0.368	0.46	0.26	0.377	0.703	0.814	0.569	0.0764	0.0911	1.03	0.927	0.843	0.062	0.0695
NCI-H1650	0.859	0.756	0.912	0.835	0.86	0.569	0.534	0.596	0.547	0.649	0.775	0.649	0.176	0.151	0.124	–	–	–	–	–
NCI-H1395	1.1	1.11	1.09	1.03	1.07	0.615	0.645	0.627	0.632	0.628	0.868	0.905	0.415	0.353	0.733	0.958	0.502	0.43	0.499	0.369
LU99A	0.965	0.98	1.02	0.857	1.04	0.371	0.32	0.411	0.292	0.334	0.889	1.07	0.193	0.202	0.211	0.53	0.515	0.209	0.146	0.179
NCI-H1355	0.922	0.933	0.967	0.931	1.02	0.409	0.391	0.432	0.434	0.442	0.996	0.976	0.62	0.194	0.183	0.701	0.797	0.753	0.226	0.17
HCC-78	–	0.642	0.706	–	1.01	–	0.233	0.207	–	0.182	0.403	0.885	0.814	0.39	0.18	0.357	0.295	0.379	0.211	0.164
NCI-H1563	0.976	1.03	0.946	0.942	1.02	0.658	0.66	0.602	0.599	0.665	0.906	0.938	0.832	0.568	0.638	0.858	0.933	0.928	0.598	0.583
HCC-15	0.85	0.879	0.787	0.749	0.895	0.704	0.778	0.706	0.748	0.786	0.857	0.81	0.496	0.248	0.123	0.835	0.73	0.691	0.142	0.117
EKVX	0.206	0.193	0.22	0.222	0.236	0.418	0.437	0.437	0.388	0.508	0.199	0.205	0.205	0.142	0.117	0.933	0.826	0.791	0.175	0.138
NCI-H2087	1.01	0.999	0.987	0.983	1.05	0.895	0.838	0.895	0.722	1.04	1.38	0.992	0.594	0.138	0.146	1.11	1.18	1.03	0.15	0.132
LK-2	0.83	0.886	0.877	0.774	1.12	0.582	0.567	0.636	–	0.582	0.883	0.81	0.336	0.163	0.199	1.14	0.318	0.374	0.222	0.282
NCI-H1437	0.769	0.884	0.743	0.716	0.818	0.479	0.441	0.451	0.427	0.477	0.784	0.718	0.237	0.116	0.122	0.981	0.742	0.422	0.113	0.0916

Cell Line	relative viability ([1]; first compound 0.01 µM)	relative viability ([1]; first compound 0.03162 µM)	relative viability ([1]; first compound 0.1 µM)	relative viability ([1]; first compound 0.3162 µM)	relative viability ([1]; first compound 1 µM)	relative viability ([2]; first compound 0.01 µM)	relative viability ([2]; first compound 0.03162 µM)	relative viability ([2]; first compound 0.1 µM)	relative viability ([2]; first compound 0.3162 µM)	relative viability ([2]; first compound 1 µM)	relative viability ([3]; first compound 0.01 µM)	relative viability ([3]; first compound 0.03162 µM)	relative viability ([3]; first compound 0.1 µM)	relative viability ([3]; first compound 0.3162 µM)	relative viability ([3]; first compound 1 µM)	relative viability ([4]; first compound 0.01 µM)	relative viability ([4]; first compound 0.03162 µM)	relative viability ([4]; first compound 0.1 µM)	relative viability ([4]; first compound 0.3162 µM)	relative viability ([4]; first compound 1 µM)
COR-L23	0.879	1.02	1.02	1.03	0.929	0.742	0.895	0.831	0.763	0.869	1.05	0.776	0.357	0.0913	0.102	0.853	0.675	0.18	0.0928	0.0868
ABC-1	1.02	1.19	1.18	1.08	1.31	0.638	0.8	0.483	0.678	0.743	1.23	1.39	1.04	0.643	0.529	1.08	1.13	0.732	0.296	0.3
NCI-H838	0.951	1.08	1.05	0.971	1.09	0.37	0.481	0.47	0.435	0.432	1.04	0.877	0.155	0.101	0.133	0.967	1	0.661	0.124	0.144
A549	0.881	1.11	0.963	0.869	1.07	0.469	0.509	0.535	0.529	0.572	1.05	0.813	0.476	0.053	0.0394	0.767	0.814	0.698	0.0447	0.0443
A-427	1.07	1.04	1.02	1.03	0.953	0.747	0.796	0.685	0.632	0.706	0.905	1.08	1	0.969	0.135	1.11	1.04	1.03	0.381	0.136
NCI-H1792	0.894	0.965	0.923	0.964	1.01	0.353	0.285	0.26	0.29	0.286	0.93	0.751	1.09	0.186	0.0746	0.786	0.804	0.643	0.34	0.134
LCLC-97TM1	–	0.887	0.859	0.739	1.32	–	0.251	0.168	0.173	0.207	0.919	0.737	0.114	0.13	0.117	0.197	0.219	0.214	0.129	0.141
NCI-H1703	1.16	1.2	1.21	1.05	1.2	0.257	0.224	0.298	0.283	0.254	0.956	–	0.323	0.174	0.113	0.347	0.247	0.279	0.0951	0.123
LCLC-103H	–	–	–	–	–	0.692	0.761	0.671	0.609	0.679	–	–	–	–	–	1.05	0.925	0.929	0.556	0.125
PC-3 [JPC-3]	0.479	0.453	0.448	0.463	0.439	0.779	0.772	0.561	0.667	0.743	0.462	0.456	0.441	0.451	0.233	1.13	0.978	0.871	0.264	0.24
BEN	0.61	0.548	0.657	0.492	0.697	0.526	0.551	0.526	0.606	0.55	0.631	0.578	0.479	0.228	0.235	1.05	0.779	0.695	0.261	0.245
NCI-H1666	0.515	0.653	0.789	0.58	0.788	0.305	0.55	0.35	0.381	0.469	0.779	0.582	0.29	0.231	0.262	0.988	0.737	0.592	0.287	0.266
LC-2-ad	0.916	1.02	0.976	1.04	1.06	0.428	0.515	0.445	0.386	0.428	0.995	0.715	0.121	0.127	0.131	0.521	0.348	0.0935	0.0735	0.123
SK-LU-1	0.897	0.867	0.96	0.776	1.08	0.532	0.648	0.514	0.645	0.584	0.815	0.715	0.495	0.252	0.189	1.03	0.507	0.317	0.28	0.244
ChaGo-K-1	–	–	–	–	–	0.736	0.642	0.685	0.686	0.367	–	–	–	–	–	–	–	–	–	–
COR-L 105	0.404	0.375	0.358	0.367	0.345	0.424	0.467	0.423	0.411	0.451	0.309	0.364	0.271	0.248	0.269	0.744	1.07	0.817	0.252	0.26
NCI-H441	–	–	–	–	–	0.419	0.507	0.605	0.471	0.425	–	–	–	–	–	0.613	0.235	0.148	0.168	0.178
